According to US20080287549A1, “METHODS AND MATERIALS FOR CONTROLLING RODENT POPULATIONS” (priority 2007, published 2008):

Experiments:
Serum testosterone = Serum testosterone in male rats after 7 days of treatment (direct RIA); assay type: in vivo; settings: 7 consecutive days; for Effect on serum testosterone levels compared to the control group: 0.2-20 mg/kg; for Average Decrease in Serum Testosterone Level (%): pre- vs post-treatment
Protocol: (§1) Male rats were given increasing doses (control=0 mg/kg, low=0.2 mg/kg, medium=2 mg/kg and high=20 mg/kg) of clomiphene, trans-clomiphene or cis-clomiphene for 7 consecutive days. Treatment was followed by a 7-day washout period. Serum testosterone levels and body weight were tested pre-treatment and post-treatment. Serum testosterone levels were analyzed by direct radioimmunoassay (RIA).
(§2) There were significant and unexpected decreases in serum testosterone and body weight among all treatment groups. […] There was a significant loss in both body weight and total serum testosterone with clomiphene that was dose-dependent.

[1] = Body weight in male rats after 7 days of treatment; assay type: in vivo; settings: 7 consecutive days; for Effect on body weight compared to the control group: 0.2-20 mg/kg; for Average Loss of Body Weight: pre- vs post-treatment
Protocol: as §1, §2

[2] = cited from earlier work
[3] = Ernst et al.; cited from earlier work
FSH, LH, testosterone = settings: cited from earlier work
[4] = Long-term low-dose study: mean body weight in male and female rats; assay type: in vivo
Protocol: (§3) Twenty-eight weeks of a two-year study of the effects of low dosages of trans-clomiphene (0 mg/kg/day (control), 0.0125 mg/kg/day, 0.025 mg/kg/day and 0.05 mg/kg/day) on mean body weight and mean food consumption in age-matched male and female rats has been completed. For each group, n=60. Losses in body weight and decreases in food consumption in both male and female treatment groups (compared to control groups) have been observed in every treatment group. As the study has progressed, the losses in body weight and decreases in food consumption have become more pronounced. See Table 2 (M=male; F=female; Mean Body weight is in grams; Mean Food consumption is in grams/animal/day; and dosages are of trans-clomiphene in mg/kg/day).

[5] = Long-term low-dose study: mean food consumption in male and female rats; assay type: in vivo
Protocol: as §3

[6] = female rats, 0.0125 mg/kg/day, Week 2
[7] = female rats, 0.0125 mg/kg/day, Week 6
[8] = female rats, 0.0125 mg/kg/day, Week 10
[9] = female rats, 0.0125 mg/kg/day, Week 14
[10] = female rats, 0.0125 mg/kg/day, Week 18
[11] = female rats, 0.0125 mg/kg/day, Week 22
[12] = female rats, 0.0125 mg/kg/day, Week 26
[13] = female rats, 0.0125 mg/kg/day, Week 28
[14] = female rats, 0.025 mg/kg/day, Week 2
[15] = female rats, 0.025 mg/kg/day, Week 6
[16] = female rats, 0.025 mg/kg/day, Week 10
[17] = female rats, 0.025 mg/kg/day, Week 14
[18] = female rats, 0.025 mg/kg/day, Week 18
[19] = female rats, 0.025 mg/kg/day, Week 22
[20] = female rats, 0.025 mg/kg/day, Week 26
[21] = female rats, 0.025 mg/kg/day, Week 28
[22] = female rats, 0.05 mg/kg/day, Week 2
[23] = female rats, 0.05 mg/kg/day, Week 6
[24] = female rats, 0.05 mg/kg/day, Week 10
[25] = female rats, 0.05 mg/kg/day, Week 14
[26] = female rats, 0.05 mg/kg/day, Week 18
[27] = female rats, 0.05 mg/kg/day, Week 22
[28] = female rats, 0.05 mg/kg/day, Week 26
[29] = female rats, 0.05 mg/kg/day, Week 28
[30] = male rats, 0.0125 mg/kg/day, Week 2
[31] = male rats, 0.0125 mg/kg/day, Week 6
[32] = male rats, 0.0125 mg/kg/day, Week 10
[33] = male rats, 0.0125 mg/kg/day, Week 14
[34] = male rats, 0.0125 mg/kg/day, Week 18
[35] = male rats, 0.0125 mg/kg/day, Week 22
[36] = male rats, 0.0125 mg/kg/day, Week 26
[37] = male rats, 0.0125 mg/kg/day, Week 28
[38] = male rats, 0.025 mg/kg/day, Week 2
[39] = male rats, 0.025 mg/kg/day, Week 6
[40] = male rats, 0.025 mg/kg/day, Week 10
[41] = male rats, 0.025 mg/kg/day, Week 14
[42] = male rats, 0.025 mg/kg/day, Week 18
[43] = male rats, 0.025 mg/kg/day, Week 22
[44] = male rats, 0.025 mg/kg/day, Week 26
[45] = male rats, 0.025 mg/kg/day, Week 28
[46] = male rats, 0.05 mg/kg/day, Week 2
[47] = male rats, 0.05 mg/kg/day, Week 6
[48] = male rats, 0.05 mg/kg/day, Week 10
[49] = male rats, 0.05 mg/kg/day, Week 14
[50] = male rats, 0.05 mg/kg/day, Week 18
[51] = male rats, 0.05 mg/kg/day, Week 22
[52] = male rats, 0.05 mg/kg/day, Week 26
[53] = male rats, 0.05 mg/kg/day, Week 28

CCN(CC)CCOc1ccc(/C(=C(/Cl)c2ccccc2)c2ccccc2)cc1 [Cis-clomiphene, cis-clomiphene]
Effect on serum testosterone levels compared to the control group (Serum testosterone): significantly and statistically lowered serum testosterone levels
Average Decrease in Serum Testosterone Level (%) (Serum testosterone; low=0.2 mg/kg): 68.1%
Average Decrease in Serum Testosterone Level (%) (Serum testosterone; medium=2 mg/kg): 99.3%
Effect on body weight compared to the control group [1]: caused a loss in body weight
Average Loss of Body Weight ([1]; high=20 mg/kg): 75 g
Average Loss of Body Weight ([1]; low=0.2 mg/kg): 32 g
Average Loss of Body Weight ([1]; medium=2 mg/kg): 54 g
time for which significant blood level is detectable ([2]; following a single dose of clomiphene citrate): in excess of one month
in vivo clearance [2]: clears slowly
estrogenic / antiestrogenic activity [3]: more potent and more estrogenic form

CCN(CC)CCOc1ccc(C(=C(Cl)c2ccccc2)c2ccccc2)cc1 [Clomiphene, clomiphene]
Effect on serum testosterone levels compared to the control group (Serum testosterone): significantly and statistically lowered serum testosterone levels
Average Decrease in Serum Testosterone Level (%) (Serum testosterone; high=20 mg/kg): 89.7%
Average Decrease in Serum Testosterone Level (%) (Serum testosterone; low=0.2 mg/kg): 65.2%
Average Decrease in Serum Testosterone Level (%) (Serum testosterone; medium=2 mg/kg): 83.5%
Effect on body weight compared to the control group [1]: caused a loss in body weight
Average Loss of Body Weight ([1]; high=20 mg/kg): 69 g
Average Loss of Body Weight ([1]; low=0.2 mg/kg): 24 g
Average Loss of Body Weight ([1]; medium=2 mg/kg): 41 g
LH, FSH, and testosterone (FSH, LH, testosterone; after 2 months of treatment (Guay et al.)): increase
free and total testosterone (FSH, LH, testosterone; men after treatment (Tenover et al.)): increases
FSH, LH (FSH, LH, testosterone; young and old men after treatment (Tenover et al.)): increases

CCN(CC)CCOc1ccc(/C(=C(\Cl)c2ccccc2)c2ccccc2)cc1 [Trans-clomiphene, trans-clomiphene]
Effect on serum testosterone levels compared to the control group (Serum testosterone): significantly and statistically lowered serum testosterone levels
Average Decrease in Serum Testosterone Level (%) (Serum testosterone; high=20 mg/kg): 73%
Average Decrease in Serum Testosterone Level (%) (Serum testosterone; low=0.2 mg/kg): 71.7%
Average Decrease in Serum Testosterone Level (%) (Serum testosterone; medium=2 mg/kg): 68.3%
Effect on body weight compared to the control group [1]: caused a loss in body weight
Average Loss of Body Weight ([1]; high=20 mg/kg): 35 g
Average Loss of Body Weight ([1]; low=0.2 mg/kg): 34 g
Average Loss of Body Weight ([1]; medium=2 mg/kg): 40 g
Mean Body weight [4, 6]: 225.1 grams
Mean Body weight [4, 7]: 269.0 grams
Mean Body weight [4, 8]: 280.3 grams
Mean Body weight [4, 9]: 291.8 grams
Mean Body weight [4, 10]: 300.8 grams
Mean Body weight [4, 11]: 309.0 grams
Mean Body weight [4, 12]: 318.7 grams
Mean Body weight [4, 13]: 318.4 grams
Mean Body weight [4, 14]: 220.4 grams
Mean Body weight [4, 15]: 257.3 grams
Mean Body weight [4, 16]: 271.8 grams
Mean Body weight [4, 17]: 281.4 grams
Mean Body weight [4, 18]: 286.9 grams
Mean Body weight [4, 19]: 294.9 grams
Mean Body weight [4, 20]: 305.5 grams
Mean Body weight [4, 21]: 304.4 grams
Mean Body weight [4, 22]: 214.4 grams
Mean Body weight [4, 23]: 245.1 grams
Mean Body weight [4, 24]: 260.3 grams
Mean Body weight [4, 25]: 272.3 grams
Mean Body weight [4, 26]: 278.9 grams
Mean Body weight [4, 27]: 287.7 grams
Mean Body weight [4, 28]: 296.9 grams
Mean Body weight [4, 29]: 298.3 grams
Mean Body weight [4, 30]: 355.5 grams
Mean Body weight [4, 31]: 467.0 grams
Mean Body weight [4, 32]: 519.0 grams
Mean Body weight [4, 33]: 552.1 grams
Mean Body weight [4, 34]: 572.5 grams
Mean Body weight [4, 35]: 597.8 grams
Mean Body weight [4, 36]: 619.6 grams
Mean Body weight [4, 37]: 620.2 grams
Mean Body weight [4, 38]: 347.4 grams
Mean Body weight [4, 39]: 447.8 grams
Mean Body weight [4, 40]: 498.0 grams
Mean Body weight [4, 41]: 527.8 grams
Mean Body weight [4, 42]: 543.3 grams
Mean Body weight [4, 43]: 566.3 grams
Mean Body weight [4, 44]: 590.0 grams
Mean Body weight [4, 45]: 594.2 grams
Mean Body weight [4, 46]: 335.2 grams
Mean Body weight [4, 47]: 414.1 grams
Mean Body weight [4, 48]: 451.7 grams
Mean Body weight [4, 49]: 480.5 grams
Mean Body weight [4, 50]: 496.9 grams
Mean Body weight [4, 51]: 518.8 grams
Mean Body weight [4, 52]: 536.8 grams
Mean Body weight [4, 53]: 542.9 grams
Mean Food consumption [5, 6]: 17.1 grams/animal/day
Mean Food consumption [5, 7]: 17.4 grams/animal/day
Mean Food consumption [5, 8]: 17.5 grams/animal/day
Mean Food consumption [5, 9]: 20.0 grams/animal/day
Mean Food consumption [5, 10]: 17.5 grams/animal/day
Mean Food consumption [5, 11]: 17.8 grams/animal/day
Mean Food consumption [5, 12]: 16.9 grams/animal/day
Mean Food consumption [5, 13]: 16.4 grams/animal/day
Mean Food consumption [5, 14]: 17.3 grams/animal/day
Mean Food consumption [5, 15]: 16.7 grams/animal/day
Mean Food consumption [5, 16]: 17.8 grams/animal/day
Mean Food consumption [5, 17]: 18.2 grams/animal/day
Mean Food consumption [5, 18]: 16.1 grams/animal/day
Mean Food consumption [5, 19]: 17.0 grams/animal/day
Mean Food consumption [5, 20]: 16.3 grams/animal/day
Mean Food consumption [5, 21]: 15.4 grams/animal/day
Mean Food consumption [5, 22]: 16.0 grams/animal/day
Mean Food consumption [5, 23]: 15.8 grams/animal/day
Mean Food consumption [5, 24]: 17.4 grams/animal/day
Mean Food consumption [5, 25]: 19.0 grams/animal/day
Mean Food consumption [5, 26]: 16.4 grams/animal/day
Mean Food consumption [5, 27]: 17.5 grams/animal/day
Mean Food consumption [5, 28]: 16.3 grams/animal/day
Mean Food consumption [5, 29]: 15.3 grams/animal/day
hypophagic effects ([5]; male and female rats, 0.0125-0.05 mg/kg/day, twenty-eight weeks): observed even at extremely low concentrations
Mean Food consumption [5, 30]: 23.8 grams/animal/day
Mean Food consumption [5, 31]: 25.1 grams/animal/day
Mean Food consumption [5, 32]: 26.6 grams/animal/day
Mean Food consumption [5, 33]: 26.5 grams/animal/day
Mean Food consumption [5, 34]: 24.3 grams/animal/day
Mean Food consumption [5, 35]: 25.1 grams/animal/day
Mean Food consumption [5, 36]: 23.1 grams/animal/day
Mean Food consumption [5, 37]: 23.6 grams/animal/day
Mean Food consumption [5, 38]: 24.3 grams/animal/day
Mean Food consumption [5, 39]: 23.8 grams/animal/day
Mean Food consumption [5, 40]: 26.9 grams/animal/day
Mean Food consumption [5, 41]: 25.4 grams/animal/day
Mean Food consumption [5, 42]: 23.6 grams/animal/day
Mean Food consumption [5, 43]: 24.0 grams/animal/day
Mean Food consumption [5, 44]: 23.4 grams/animal/day
Mean Food consumption [5, 45]: 22.6 grams/animal/day
Mean Food consumption [5, 46]: 22.0 grams/animal/day
Mean Food consumption [5, 47]: 22.5 grams/animal/day
Mean Food consumption [5, 48]: 23.5 grams/animal/day
Mean Food consumption [5, 49]: 25.9 grams/animal/day
Mean Food consumption [5, 50]: 22.6 grams/animal/day
Mean Food consumption [5, 51]: 23.1 grams/animal/day
Mean Food consumption [5, 52]: 22.4 grams/animal/day
Mean Food consumption [5, 53]: 22.0 grams/animal/day
in vivo clearance [2]: rapidly cleared
estrogenic / antiestrogenic activity [3]: antiestrogenic
